According to patent US20260263521A1, “ANTI-CD200R1 ANTIBODY AND USE THEREOF” (AIMED BIO INC., priority 2023, published 2026):

Tested on: Th1/Th2 cytokines in nasal polyp patient specimens
Assay: Ex vivo cytokine inhibition in nasal polyp patient specimens (CBA)
Assay type: cell-based, human
Settings: antibody drugs 100 nM; three DUPIXENT-resistant samples of 10; Th2 cytokines IL-5, IL-4
Procedure: The specimens were finely chopped and minced, and then additionally processed twice using the m_lung_02 protocol on a gentleMACS (Miltenyi Biotec) to obtain tissue fragments. After centrifugation at 1500 rpm for 3 minutes to ensure that all tissues formed a pellet, RPMI media+10% FBS was aliquoted in the pellet at a 1:3 ratio. The pellet was thoroughly mixed with the medium and dispensed into a 96-well u-bottom plate, 100 μl per well, in triplicate for each drug. To establish the screening assay, results were obtained first using dexamethasone (a steroid-based positive control drug), followed by treatment with the anti-CD200R1 antibody (P001009v1) and other drugs used for the corresponding disease. All antibody-based drugs were treated at 100 nM, while steroid drugs such as dexamethasone were treated at 20 μM.
After drug treatment, the cells were incubated at 37° C. for 1 hour. To increase overall cytokine levels, 4 μl of a 10-fold diluted cell stimulation cocktail 500× (Invitrogen #00-4970-03) was added on each well and mixed. After reaction for 24 hours at 37° C., the supernatant was collected by centrifugation. Using the human Th1/Th2 cytokine cytometric bead array (CBA) kit (BD, #550749), cytokine levels in the supernatant were measured and the degree of drug responsiveness of each sample was determined.

**Q.** Which “cytokine suppression in nasal polyp patient samples” value does the source give for “DUPIXENT®: drug used as a conventional therapeutic agent for atopic dermatitis and allergic diseases [reference compound]” here?
**A.** no suppression
